How the values were obtained:
[1] = test system: Streptococcus pneumoniae R6; assay: Growth inhibition / lysis screening of planktonic cultures (OD550/600); type: cell-based; set-up: key: (+++) full inhibition; (++) partial inhibition; (+) growth retardation; -: (−) no effect; conditions: S. pneumoniae R6, 50 and 100 μM compound added at early logarithmic phase (T1), OD550/600 followed 10 h, 37°C
Method in brief: (§1)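 Early exponential-phase cultures (OD550/600 c. a. 0.15–0.2) were treated with DICAMs at 50 and 100 μM final, diluted from DMSO stocks into medium, and incubated 10 h at 37°C. Turbidity (OD550/600) was read every 20 min against untreated controls to track growth inhibition and lysis.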

Streptococcus pyogenes T = assay: Growth inhibition screening of planktonic cultures (OD550/600); type: cell-based; set-up: key: (+++) full inhibition; (++) partial inhibition; (+) growth retardation; -: (−) no effect; conditions: S. pyogenes T, 50 and 100 μM compound added at T1, OD550/600 followed 10 h, 37°C
Method in brief: as §1

S. pneumoniae D39 = type: cell-based, Streptococcus pneumoniae
Excerpt: First, the substitution of the fatty amino chain of 18 carbon atoms of the reference compound DICAM 2 by either an OMe group (methylated tripeptide DICAM 5) or an amine with 12 carbon atoms (DICAM 9) abolished the activity against all three pathogens. However, the activity remained intact when the chain of the fatty amine of prototypes DICAMs 1 and 4 was two carbon atoms shorter (DICAM 10 and DICAM 12, respectively), based on S. pneumoniae and S. pyogenes results. […] Third, Glu and Ala were tolerated as C-terminal residues of the lipotripeptides. […] In addition, deletion of the C-terminal Glu (DICAM 13) eradicated the activity against S. pneumoniae and S. aureus. However, a delay and small inhibition of S. pyogenes ^T growth was still observed. Fourth, Glu (DICAMs 19 and 20) and Orn (DICAMs 21 and 22) were tolerated as N-terminal residues, with the impact of these modifications being pathogen-dependent. […] SAR studies continued by measuring the dose dependence of DICAM’s activity at T1 with all the compounds found to be active against S. pyogenes or S. aureus in the initial screening, and all but one compound in the case of S. pneumoniae. The OD values of bacterial cultures were monitored after DICAM addition, and the decrease in the number of viable bacteria was measured relative to controls (Figures 4–6; Supplementary Figure S1). As antibacterial efficacy may decline with the bacterium dose in the inoculum ([Belley et al., 2009]; [Udekwu et al., 2009]; [Luca et al., 2013]), the assays were performed using the bacterial concentrations necessary for the fluorescence experiments in Section 2.3 (10^7–10^8 CFU/mL). At these high bacterial densities, MICs were determined as the DICAM concentration at which bacteria neither grow nor are killed (the stationary concentration (SC)), following [Udekwu et al., 2009]. By fitting the logarithmic plot of cell viability decrease vs. the DICAM dose to a Hill function (see Section 5.2.3.1) we were able to determine the maximum variation in viability (Δlogmax = ∆log f - ∆log 0, where ∆log f and ∆log 0 are the upper and lower limits of Δlog) in the assay conditions, the SC concentration (Δlog = 0), the dose required for half-variation in Δlogmax (K 1/2), and the cooperativity of the antimicrobial effect (N H).
Susceptibility to DICAMs was first tested by growth-inhibition assays at 50 and 100 μM of compound. Briefly, working solutions at 5 mM or 10 mM DICAM in pure DMSO were prepared from DICAM stocks (40 mM in pure DMSO) and diluted with fresh culture medium to 5× the desired final concentration. Aliquots (50 µL) of these solutions were added to 200 µL of bacterium cultures grown to early exponential phase (OD550/600 c. a. 0.15–0.2 in sterile 96-well plates (Cultek, Spain). Incubation continued for 10 h at 37°C and turbidity (OD550/600) values were measured every 20 min to monitor growth and lysis, using a VersaMax microplate reader (Molecular Devices; United Kingdom). Next, the activity dependence on DICAM’s dose was examined by measuring the turbidity of treated and untreated cultures as a function of time. Also, the decay of bacterial viability (CFU/mL) at selected times of treatment was assessed by colony counting on LB-agar or TSA plates after overnight incubation at 37°C. By default, 10 μL of 10-fold serially diluted samples were plated, which set the lower detection limit at 10^2 CFU/mL (10^1 CFU/mL when 100 μL of the undiluted sample was seeded).
As antibacterial efficacy may decline with the bacterium dose in the inoculum ([Belley et al., 2009]; [Udekwu et al., 2009]; [Luca et al., 2013]), activity assays were performed using the bacterial concentrations required for the fluorescence experiments in Section 2.3 (10^7–10^8 CFU/mL). At such bacterial densities, MICs were determined as the DICAM concentration at which bacteria neither grow nor are killed under assay conditions (the stationary concentration (SC)), as indicated in Section 2.2. […]

[2] = test system: human fetal lung fibroblasts IMR-90; type: cell-based; conditions: modified MTT, 48 h exposure, 0.8–200 µM, four parameter logistic fit; ± SD, at least three independent experiments; read-out: IC50 IMR-90
Method: DICAM’s cytotoxicity was determined employing a modified MTT assay as described elsewhere ([Antúnez-Mojica et al., 2016]) using human lung carcinoma epithelial cells A549, human fetal lung fibroblasts IMR-90, and human HeLa cervix carcinoma cells treated with increasing concentrations of DICAMs (0.8–200 µM range). A549 cells were grown in RPMI 1640 (Gibco; Fisher Scientific, Spain) supplemented with 10% FCS, 2 mM glutamine, 100 IU/mL penicillin and 100 μg/mL streptomycin. IMR-90 and HeLa cells were cultured in DMEM (Gibco; Fisher Scientific, Spain) supplemented with 10% FCS, 2 mM L-glutamine, 1 mM pyruvate, […] penicillin, 100 μg/mL streptomycin and 40 μg/mL gentamycin. Cell viability was assessed after 48 h exposure to DICAMs. Vinblastine was used as a positive control. IC50 value is the concentration that gives 50% inhibition of cell growth and was determined using SigmaPlot (Systat) fitting to a Four Parameter Logistic curve.

In the case of “Ala - Pro -Glu-NH-C18H37 · HCl [DICAM 23]”, the “Growth halt or lysis (50/100 μM), Spn” value [1] is reported as “+++”, the “Growth halt or lysis (50/100 μM), Spy T” value (Streptococcus pyogenes T) is reported as “+++” and the “SC (stationary concentration, Δlog = 0), S. pneumoniae D39” value (S. pneumoniae D39; 1 h treatment, C + Y medium, 37°C, added at T1, 10^7–10^8 CFU/mL, CFU vs untreated controls, Hill fit) is reported as 2.9 ± 0.8 µM. The EC50 (S. pneumoniae D39; 1 h treatment, C + Y, 37°C, Hill fit, read-out: K 1/2 (concentration yielding half-variation in Δlogmax), S. pneumoniae D39 (converted)) was 8.6 ± 0.3 µM, the “Reduction of the number of viable cells at saturating doses” value (S. pneumoniae D39; S. pneumoniae D39, within 60 min) was ≥ 4.6 log-units and the “Reduction of the number of viable cells at 3 × SC, S. pneumoniae” value (S. pneumoniae D39; after 1-h incubation at 3 × SC values) was 99.2%–99.8. The “Δlogmax, S. pneumoniae D39” value (S. pneumoniae D39; maximum variation in viability, 1 h treatment, C + Y, 37°C, Hill fit) was 5.4 ± 0.2 logarithmic units and the IC50 [2] was 57 ± 2 µM.
